Laboratory results taken from ChEMBL document CHEMBL1201862, “PubChem BioAssay data set” (2004).
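Step 1: Grow cells in 96-well plates. Step 2: Expose to compound for 48 hours at 5 concentrations. Step 3: Interpolate endpoints linearly; if unreached, use highest concentration. GI50 marks 50% less growth.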 The source made the active and inactive calls. No stated cut-off is given here; in the data, active = GI50 up to about 1.1 µM and inactive = higher.

Legend:
Test in all cases: inhibition of tumour cell growth, NCI panel, 48 h
MDA-N = test system: MDA-N
MDA-MB-435 = test system: MDA-MB-435
Hs-578T = test system: Hs-578T
MDA-MB-231 = test system: MDA-MB-231
PC-3 = test system: PC-3
BT-549 = test system: BT-549
SNB-78 = test system: SNB-78
RXF 631 = test system: RXF 631

Measured: GI50

Cc1ccc(S(=O)(=O)N2CCCN(S(=O)(=O)c3ccc(C)cc3)CC2)cc1
inactive: MDA-N > 100 µM | MDA-MB-435 > 100 µM | Hs-578T > 100 µM | MDA-MB-231 > 100 µM | PC-3 > 100 µM

COC(=O)C1C(C(=O)OC)N(Cc2ccccc2)C(=O)N1Cc1ccccc1 (stereo unspecified)
inactive: BT-549 > 100 µM | MDA-N > 100 µM | MDA-MB-435 > 100 µM | Hs-578T > 100 µM | PC-3 > 100 µM

CC(=O)OC1(C#N)CC2OC1C1C2N=NN1C(=O)OC(C)(C)C (stereo unspecified)
inactive: SNB-78 26.9 µM | RXF 631 50.6 µM

CCC(C(=O)c1ccc(OC)c(OC)c1)N(C(=O)C(F)(F)F)C(C)c1ccccc1 (stereo unspecified)
inactive: MDA-N > 100 µM | MDA-MB-435 > 100 µM | MDA-MB-231 > 100 µM | PC-3 > 100 µM

Cc1nc2[nH]ncn2c(=O)c1CCCl
inactive: MDA-N > 10 µM | MDA-MB-435 > 10 µM | Hs-578T > 10 µM | MDA-MB-231 > 10 µM | PC-3 > 10 µM

COc1ccc(C2COc3c(ccc(O)c3C)C2)cc1OC (stereo unspecified)
inactive: SNB-78 157 µM

CC(C)(O)[C@H](CCO)O[Si](c1ccccc1)(c1ccccc1)C(C)(C)C
inactive: SNB-78 15 µM

COc1ccc(/C(Cl)=C(\C=O)c2ccccc2)cc1OC
inactive: SNB-78 16.7 µM

CC(=O)OCC1OC(NC(=O)N(CCCl)N=O)C(OC(C)=O)C(OC(C)=O)C1OC(C)=O (stereo unspecified)
inactive: SNB-78 > 100 µM

NC(CCCCCP(=O)(O)O)C(=O)O (stereo unspecified) [AP-7]
inactive: BT-549 > 100 µM | MDA-N > 100 µM | MDA-MB-435 > 100 µM | Hs-578T > 100 µM | MDA-MB-231 > 100 µM | PC-3 > 100 µM
